From US7163946B2 (Ligand Pharmaceuticals Incorporated, priority 2002, dated 2007)

What was measured:
immature rabbits = assay: McPhail (Clauberg) rabbit assay of progestational activity; assay type: in vivo; settings: Oryctolagus cuniculus; estradiol-primed immature rabbits; glandular changes of the uterus; read-out: potency (MAD in mg/kg), minimum active dose
Experimental: The superiority of the 7,9-difluoro analogue compounds of the present invention was further characterized utilizing the McPhail rabbit model according to the following illustrative Examples. The Clauberg or McPhail assay is a classic assay utilizing rabbits to measure progestational activity. […] In this assay, immature rabbits are treated initially with estradiol, which induces growth in the uterus. This is followed by a progestin, which causes a large change in the glandular content of the uterus. It is this change in the glandular component which is a measure of the progestational activity of a progestin. The measurement of these glandular changes is carried out histologically using stained sections of the uterus. The in vivo comparison between the new 7,9-difluoro compounds and analogues with substitution patterns different from 7,9-difluoro (U.S. Pat. Nos. 5,693,646 and 5,696,127) is tabulated in Tables 7 and 8. The in vivo potency of the progestins is presented as the minimum active dose (MAD).

hPR [1] = molecular target: T1, hPR (Homo sapiens, UniProt P06401); assay: hPR cotransfection assay in CV-1 cells, agonist mode; assay type: cell-based; settings: for Emax: CV-1, CV-1 cells, read-out: hPR Agonist CV-1 Cells Eff. (%); for Emax / hPR Agonist CV-1 Cells Eff. (%): relative to maximal response of progesterone as 100%
T1 sequence (P06401 1-933): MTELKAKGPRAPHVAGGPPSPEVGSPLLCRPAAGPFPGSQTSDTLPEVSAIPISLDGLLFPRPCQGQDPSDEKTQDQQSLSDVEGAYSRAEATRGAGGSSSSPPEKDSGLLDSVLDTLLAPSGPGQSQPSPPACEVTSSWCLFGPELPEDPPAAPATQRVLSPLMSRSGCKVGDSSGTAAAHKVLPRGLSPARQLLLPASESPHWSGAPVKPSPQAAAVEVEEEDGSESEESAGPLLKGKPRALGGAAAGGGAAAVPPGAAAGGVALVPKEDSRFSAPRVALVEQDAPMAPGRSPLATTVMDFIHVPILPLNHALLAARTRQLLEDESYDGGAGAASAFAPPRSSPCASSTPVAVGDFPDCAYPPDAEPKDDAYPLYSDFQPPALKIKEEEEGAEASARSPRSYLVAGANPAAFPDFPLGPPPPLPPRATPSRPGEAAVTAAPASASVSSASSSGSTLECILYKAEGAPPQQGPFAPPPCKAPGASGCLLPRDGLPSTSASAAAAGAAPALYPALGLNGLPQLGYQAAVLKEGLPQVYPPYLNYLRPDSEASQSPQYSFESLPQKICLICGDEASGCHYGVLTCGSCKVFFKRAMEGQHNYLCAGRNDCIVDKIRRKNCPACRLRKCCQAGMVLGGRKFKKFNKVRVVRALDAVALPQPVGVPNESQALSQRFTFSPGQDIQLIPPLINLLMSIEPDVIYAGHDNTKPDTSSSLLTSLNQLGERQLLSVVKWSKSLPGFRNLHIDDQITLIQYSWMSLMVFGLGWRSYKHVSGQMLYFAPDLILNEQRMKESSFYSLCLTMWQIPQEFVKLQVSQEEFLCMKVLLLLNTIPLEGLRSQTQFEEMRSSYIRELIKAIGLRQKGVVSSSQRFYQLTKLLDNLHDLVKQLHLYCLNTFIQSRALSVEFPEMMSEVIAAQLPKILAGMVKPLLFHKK

hPR [2] = molecular target: T1, hPR; assay: hPR cotransfection assay in CV-1 cells, antagonist mode; assay type: cell-based; settings: for Emax: CV-1, CV-1 cells, read-out: hPR Antagonist CV-1 Cells Eff. (%); for Emax / hPR Antagonist CV-1 Cells Eff. (%): maximal inhibition of reference agonist at EC50 concentration; for IC50 / hPR Antagonist CV-1 Cells Eff. (%): CV-1 cells
hPR [3] = molecular target: T2, hPR (Homo sapiens, UniProt P06401); assay: T47D alkaline phosphatase assay, antagonist mode; assay type: cell-based; settings: T47D human breast cancer cells; for Emax: read-out: hPR Antagonists T47D Cells Eff. (%); for IC50: read-out: hPR Antagonists T47D Cells IC50
T2 sequence (P06401 679-933 limits assumed): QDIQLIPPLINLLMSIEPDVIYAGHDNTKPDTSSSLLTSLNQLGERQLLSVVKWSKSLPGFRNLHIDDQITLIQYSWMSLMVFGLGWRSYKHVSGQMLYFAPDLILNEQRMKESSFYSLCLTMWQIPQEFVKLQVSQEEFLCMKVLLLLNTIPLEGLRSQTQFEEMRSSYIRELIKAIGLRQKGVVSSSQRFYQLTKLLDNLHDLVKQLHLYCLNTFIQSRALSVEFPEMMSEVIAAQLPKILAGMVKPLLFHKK

hPR [4] = molecular target: T2, hPR; assay: T47D alkaline phosphatase assay, agonist mode; assay type: cell-based; settings: T47D human breast cancer cells; for Emax: T47D, read-out: hPR Agonist T47D cells Eff. (%)
hPR-A = molecular target: T3, hPR-A (Homo sapiens, UniProt P06401); assay: Receptor competitive binding assay; settings: read-out: PR binding Ki
T3 sequence (P06401 1-769 isoform P06401-2): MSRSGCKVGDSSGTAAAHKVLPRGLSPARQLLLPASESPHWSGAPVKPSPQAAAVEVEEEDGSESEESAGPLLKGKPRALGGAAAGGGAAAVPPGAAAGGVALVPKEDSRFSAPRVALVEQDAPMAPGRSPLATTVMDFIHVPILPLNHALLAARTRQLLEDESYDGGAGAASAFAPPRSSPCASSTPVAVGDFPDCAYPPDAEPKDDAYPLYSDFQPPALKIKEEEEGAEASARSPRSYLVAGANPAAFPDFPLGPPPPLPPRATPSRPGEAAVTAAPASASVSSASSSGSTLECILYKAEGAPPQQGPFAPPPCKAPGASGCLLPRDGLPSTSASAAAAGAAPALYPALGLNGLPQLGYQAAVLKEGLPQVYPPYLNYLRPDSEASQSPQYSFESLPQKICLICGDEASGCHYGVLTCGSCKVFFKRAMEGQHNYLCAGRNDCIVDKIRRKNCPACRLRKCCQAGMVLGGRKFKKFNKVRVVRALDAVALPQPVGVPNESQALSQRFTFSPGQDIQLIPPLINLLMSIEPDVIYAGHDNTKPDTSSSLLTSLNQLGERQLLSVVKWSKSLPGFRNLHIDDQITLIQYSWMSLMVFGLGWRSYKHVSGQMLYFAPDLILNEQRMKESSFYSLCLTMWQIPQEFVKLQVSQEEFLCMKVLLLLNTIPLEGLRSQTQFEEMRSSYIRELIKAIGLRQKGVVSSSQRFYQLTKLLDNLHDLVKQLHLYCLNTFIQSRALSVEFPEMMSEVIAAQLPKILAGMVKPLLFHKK

[5] = tested on: ovariectomized female rats; assay: Multi-endpoint adult rat model, uterus/breast tissue-selectivity; assay type: in vivo; settings: ratio of relative efficacy to MPA in uterus verse in breast tissue at the same highest dose tested; estrone-treated ovariectomized rats, three days
[6] = Tables 3 and 4, values without footnote, read-out: hPR agonist potencies (EC50 in nM) in the cotransfection assay
[7] = CV-1 cells, read-out: hPR Agonist CV-1 Cells EC50

Compound | IC50 (hPR [2]) [nM] | IC50 (hPR [3]) [nM] | EC50 (hPR [4]) [nM] | EC50 (hPR [1]; [7]) [nM] | minimal effective dose (immature rabbits) [mg/kg] | uterus/breast tissue-selectivity [5] | also measured
CC1=CC(C)(C)Nc2ccc3c(c21)/C(=C/c1ccccc1F)Oc1c(F)cc(F)cc1-3 [Compound 12, 7,9-difluoro-5(Z)-(2-fluorobenzylidene)-1,2-dihydro-2,2,4-trimethyl-5H-chromeno[3,4-f]quinoline] |  |  |  |  | 0.5 |  | EC50 (hPR [1]; [6]): 2.55 nM
CC#CC1Oc2c(F)cc(F)cc2-c2ccc3c(c21)C(C)=CC(C)(C)N3 (single isomer, unassigned; (-)) [Compound 75, (−)-7,9-difluoro-5-(1-propynyl)-1,2-dihydro-2,2,4-trimethyl-5H-chromeno[3,4-f]quinoline] |  |  |  |  | < 0.5 | 4.2 | 
CC1=CC(C)(C)Nc2ccc3c(c21)C(c1cc2ccccc2s1)Oc1c(F)cc(F)cc1-3 (single isomer, unassigned; (-)) [Compound 64, (−)-7,9-difluoro-5-(benzo[b]thien-2-yl)-1,2-dihydro-2,2,4-trimethyl-5H-chromeno[3,4-f]quinoline] |  |  |  |  | 0.25 | 2.8 | 
C#CCC1Oc2c(F)cc(F)cc2-c2ccc3c(c21)C(C)=CC(C)(C)N3 (racemic) [Compound 71, (±)-7,9-difluoro-5-(2-propynyl)-1,2-dihydro-2,2,4-trimethyl-5H-chromeno[3,4-f]quinoline] |  |  |  |  | < 0.5 |  | 
CC1=CC(C)(C)Nc2ccc3c(c21)C(c1ccc(Cl)c(C)c1)Oc1ccc(F)cc1-3 (stereo not drawn) [Formula I X=9-F 4-Cl-3-Me-Ph, reference compound] |  |  |  |  | 1 |  | 
CC1=CC(C)(C)Nc2ccc3c(c21)C(c1ccc(Cl)cc1)Oc1ccccc1-3 (stereo not drawn) [Formula I X=H 4-Cl-Ph, reference compound] |  |  |  |  |  | 1.5 | 
CC(=O)O[C@]1(C(C)=O)CC[C@H]2[C@@H]3C[C@H](C)C4=CC(=O)CC[C@]4(C)[C@H]3CC[C@@]21C [MPA, reference compound] |  |  |  |  |  |  | hPR Antagonist CV-1 Cells Eff. (%) (hPR [2]): na (na = not active (i.e. efficacy of <20 and potency of >10,000)); hPR Antagonists T47D Cells Eff. (%) (hPR [3]): na (na = not active (i.e. efficacy of <20 and potency of >10,000)); hPR Agonist T47D cells Eff. (%) (hPR [4]): 114%; hPR Agonist CV-1 Cells Eff. (%) (hPR [1]; CV-1 cells): 88%
C#C[C@]1(O)CC[C@H]2[C@@H]3CCC4=CC(=O)CC[C@@H]4[C@H]3C(=C)C[C@@]21CC [3-ketodesogestrel, reference compound] | > 10000 | > 10000 | 0.2 | 0.1 |  |  | hPR Antagonist CV-1 Cells Eff. (%) (hPR [2]): na (na = not active (i.e. efficacy of <20 and potency of >10,000)); hPR Antagonists T47D Cells Eff. (%) (hPR [3]): na (na = not active (i.e. efficacy of <20 and potency of >10,000)); hPR Agonist T47D cells Eff. (%) (hPR [4]): 94%; Ki (hPR-A): 0.3 nM; hPR Agonist CV-1 Cells Eff. (%) (hPR [1]; CV-1 cells): 190%
CC1=CC(C)(C)Nc2ccc3c(c21)/C(=C/c1cccc(F)c1)Oc1ccc(F)cc1-3 [Formula II X=9-F 3-F-Ph, reference compound] |  |  |  |  |  | 2.2 | EC50 (hPR [1]; [6]): 7 nM
CC1=CC(C)(C)Nc2ccc3c(c21)C(c1cccc(C(F)(F)F)c1)Oc1ccccc1-3 (stereo not drawn) [Formula I X=H 3-CF3-Ph, reference compound] |  |  |  |  |  | 3.5 | 

The next lines start with results.

IC50 (hPR [2]) [nM] | IC50 (hPR [3]) [nM] | EC50 (hPR [4]) [nM] | EC50 (hPR [1]; [7]) [nM] | Compound | minimal effective dose (immature rabbits) [mg/kg] | uterus/breast tissue-selectivity [5] | also measured
> 10000 | 830 | 79 | 9.4 | CC1=CC(C)(C)Nc2ccc3c(c21)/C(=C/C#N)Oc1c(F)cc(F)cc1-3 [Compound 24, 7,9-difluoro-5(Z)-cyanomethylidene-1,2-dihydro-2,2,4-trimethyl-5H-chromeno[3,4-f]quinoline] |  |  | Emax (hPR [2]): < 20%; Emax (hPR [3]): 26%; Emax (hPR [4]): 72%; Ki (hPR-A): 58 nM; Emax (hPR [1]): 52%
75 | 250 | 315 | > 10000 | COC1Oc2c(F)cc(F)cc2-c2ccc3c(c21)C(C)=CC(C)(C)N3 (racemic) [Compound 32, (±)-7,9-difluoro-5-methoxy-1,2-dihydro-2,2,4-trimethyl-5H-chromeno[3,4-f]quinoline] |  |  | Emax (hPR [2]): 76%; Emax (hPR [3]): 35%; Emax (hPR [4]): 36%; Ki (hPR-A): 37 nM; Emax (hPR [1]): < 20%
24 | 4100 | > 10000 | 28 | CC1=CC(C)(C)Nc2ccc3c(c21)C(c1ccc(Cl)c(C)c1)Oc1c(F)cc(F)cc1-3 (single isomer, unassigned; (+)) [Compound 39, (+)-7,9-difluoro-5-(4-chloro-3-methylphenyl)-1,2-dihydro-2,2,4-trimethyl-5H-chromeno[3,4-f]quinoline] |  |  | hPR Antagonist CV-1 Cells Eff. (%) (hPR [2]): 62%; Emax (hPR [3]): 29%; hPR Agonist T47D cells Eff. (%) (hPR [4]): na (na = not active (i.e. efficacy of <20 and potency of >10,000)); hPR Agonist CV-1 Cells Eff. (%) (hPR [1]; CV-1 cells): 26%
42 | > 10000 | 195 | > 10000 | CC1=CC(C)(C)Nc2ccc3c(c21)C(CC(=O)c1ccccc1)Oc1c(F)cc(F)cc1-3 (racemic) [Compound 45, (±)-7,9-difluoro-5-(2-oxo-2-phenylethyl)-1,2-dihydro-2,2,4-trimethyl-5H-chromeno[3,4-f]quinoline] |  |  | Emax (hPR [2]): 79%; Emax (hPR [3]): < 20%; Emax (hPR [4]): 77%; Ki (hPR-A): 18 nM; Emax (hPR [1]): < 20%
